Target: T1, human GPR40 (Homo sapiens, UniProt O14842)
T1 construct: expressed in transfected cells
Experiment: Inositol Phosphate Turnover (IP1) Assay
Assay type: cell-based
Settings: HEK cells stably expressing human GPR40; CisBio IP-One kit; 60 minutes at 37 degrees; read-out: Human IP1 EC50
Outline: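 HEK cells stably expressing GPR40, plated 16 h, then exposed to compound in stimulation buffer for 60 min at 37 °C. IP1 accumulation read by HTRF IP-One detection after 60 min at RT.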

T1 sequence (O14842 whole entry): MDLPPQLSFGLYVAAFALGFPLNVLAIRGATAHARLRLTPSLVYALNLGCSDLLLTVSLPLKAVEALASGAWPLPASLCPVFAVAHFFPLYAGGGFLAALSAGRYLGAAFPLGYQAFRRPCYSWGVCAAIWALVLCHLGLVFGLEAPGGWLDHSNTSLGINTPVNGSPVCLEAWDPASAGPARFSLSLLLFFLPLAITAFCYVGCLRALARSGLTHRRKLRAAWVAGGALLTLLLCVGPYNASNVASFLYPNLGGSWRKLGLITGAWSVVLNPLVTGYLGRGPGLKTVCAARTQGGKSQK

SMILES	EC50
C[C@H](C(=O)O)[C@H](c1ccc2c(c1)OC1(CC2)[C@@H]2CC[C@H]1CN([C@H](C)c1cc(C(F)(F)F)ccc1C(F)(F)F)C2)C1CC1 (single isomer, unassigned) [Example 83]	798 nM
C[C@H](C(=O)O)[C@H](c1ccc2c(c1)OC1(CC2)CCN(S(=O)(=O)c2ccc(C(F)(F)F)cc2Cl)CC1)C1CC1 [Example 26, (2S,3R)-3-(1′-((2-chloro-4-(trifluoromethyl)-phenyl)sulfonyl)spiro [chroman-2,4′-piperidin]-7-yl)-3-cyclopropyl-2-methylpropanoic acid]	97.8 nM
Cc1cc(-c2ccc(OC(F)(F)F)c(C(C)N3CCC4(CCc5ccc([C@H](C6CC6)[C@H](C)C(=O)O)cc5O4)CC3)c2)n(C)n1 (mixture of isomers) [Example 114, (2S,3R)-3-cyclopropyl-3-(1′-((RS)-1-(5-(1,3-dimethyl-1H-pyrazol-5-yl)-2-(trifluoromethoxy)phenyl)eth-yl)spiro[chroman-2,4′-piperidin]-7-yl)-2-methylpropanoic acid]	91.6 nM
C[C@H](C(=O)O)[C@H](c1ccc2c(c1)OC1(CC2)CC(N(C)Cc2cc(C(F)(F)F)ccc2C(F)(F)F)C1)C1CC1 (single isomer, unassigned) [Example 98]	1.62 nM
C[C@H](C(=O)O)[C@H](c1ccc2c(c1)OC1(CC2)CCN(Cc2cc(Cl)cc3c2OC(C)(C)C3)CC1)C1CC1 [Example 61, sodium (2S3R)-3-(1′-((5-chloro-2,2-dimethyl-2,3-dihydrobenzofuran-7-yl)methyl)-spiro[chroman-2,4′-piperidin]-7-yl)-3-cyclopropyl-2-methylpropanoate]	118 nM

Next, values leading:

EC50	SMILES
3.3 nM	C[C@H](C(=O)O)[C@H](c1ccc2c(c1)OC1(CC2)CCN(c2cc(C(F)(F)F)ccc2C(F)(F)F)CC1)C1CC1 [Example 59, (2S,3R)-3-(1′-(2,5-bis(trifluoromethyl)phenyl)spiro[chroman-2,4′-piperidin]-7-yl)-3-cyclopropyl-2-methylpropanoic Acid]
995 nM	C[C@H](C(=O)O)[C@H](c1ccc2c(c1)OC1(CC2)CCN(Cc2cn(C)nc2C(F)(F)F)CC1)C1CC1 [Example 72, (2S,3R)-3-cyclopropyl-2-methyl-3-(1′-((1-methyl-3-(trifluoromethyl)-1H-pyrazol-4-yl)methyl)spiro[chroman-2,4′-piperidin]-7-yl)propanoic Acid]
2.29 nM	CC(c1cc(-c2ccoc2)ccc1OC(F)(F)F)N1CCC2(CCc3ccc([C@H](C4CC4)[C@H](C)C(=O)O)cc3O2)CC1 (single isomer, unassigned) [Example 118, (2S,3R)-3-cyclopropyl-3-(1′-((S or R)-1-(5-(furan-3-yl)-2-(trifluoromethoxy)phenyl)ethyl)spiro[chroman-2,4′-piperidin]-7-yl)-2-methylpropanoic acid]
102 nM	C[C@H](C(=O)O)[C@H](c1ccc2c(c1)OC1(CC2)[C@@H]2CC[C@H]1CN([C@H](C)c1cc(C(F)(F)F)ccc1C(F)(F)F)C2)C1CC1 (single isomer, unassigned) [Example 81]
311 nM	CC(c1ncccc1C(F)(F)F)N1CCC2(CCc3ccc([C@H](C4CC4)[C@H](C)C(=O)O)cc3O2)CC1 (single isomer, unassigned) [Example 44, (2S,3R)-3-cyclo-propyl-2-methyl-3-(1′-((R or S)-1-(3-(trifluoromethyl)pyridin-2-yl)ethyl)spiro-[chroman-2,4′-piperidin]-7-yl)propanoic acid]

Source: patent US10968232B2 (Merck Sharp & Dohme Corp., priority 2016, dated 2021)
